Measured values taken from patent publication US20210236438A1, “COMPOUNDS AND METHODS FOR THE TREATMENT OF AUTISM SPECTRUM DISORDER AND OTHER NEUROLOGICAL OR PSYCHIATRIC DISORDERS” (Tufts Medical Center, Inc., priority 2018, published 2021).
“Also recorded” adds a separate entry of the source.

Key:
[1] = ip or oral administration; U.S. Pat. No. 3,995,061; cited from earlier work
[2] = tested on: vascular endothelial growth factor (VEGF); conditions: Jeong et al. 2011; cited from earlier work
[3] = U.S. Pat. No. 3,995,061; cited from earlier work
[4] = tested on: glucose transporter 1 (GLUT-1); conditions: Jeong et al. 2011; cited from earlier work
GADPH = experiment: Western blot of control protein level in ascochlorin-treated rat embryonic cortical neurons; format: cell-based
Excerpt: (§1) Compounds that modify hnRNP L levels therefore hold promise as lead structures for the development of ASD/mental retardation/neurological disorders.

BIN1 = conditions: human osteosarcoma cells (U2OS), proteome analysis, Kang et al. 2006; cited from earlier work
hnRNP L [5] = experiment: Western blot of hnRNP L level in ascochlorin-treated cultured rat primary cortical neurons; format: cell-based; conditions: rat embryonic/primary cortical neurons, hnRNP L 60 KDa
Excerpt: as §1

hnRNP L [6] = conditions: Kang et al. 2006, cited from earlier work

Compound: CCOc1c(Cl)c(C)c(C=O)c(O)c1C/C=C(C)/C=C/C1(C)C(C)CCC(=O)C1C (stereo not shown) [4-O-ethyl-ascochlorin]
- toxicity as assessed by LD50 [1]: low toxicity

Compound: COc1c(Cl)c(C)c(C=O)c(O)c1C/C=C(C)/C=C/[C@@]1(C)[C@H](C)CCC(=O)[C@@H]1C [MAC, 4-O-methylascochlorin]
- toxicity as assessed by LD50 [1]: low toxicity
- expression of VEGF [2]: increases the expression
- tolerability in clinical trials [3]: well tolerated
- expression of GLUT-1 [4]: increases the expression

Compound: CC(/C=C/[C@@]1(C)[C@H](C)CCC(=O)[C@@H]1C)=C\Cc1c(O)c(Cl)c(C)c(C=O)c1O [ascochlorin]
- level of the control protein (GADPH 40 KDa) (GADPH): does not affect the level of the control protein
- increase in BIN1 protein level (BIN1): 10 ×
- level of hnRNP L (hnRNP L [5]): increases the level of hnRNP L; also recorded: increase hnRNP L levels in neurons; also recorded: increased levels of hnRNP L
- hnRNP L protein levels in vitro (in words) (hnRNP L [6]; U2OS osteosarcoma cells): increase hnRNP L protein levels in vitro
- increase in hnRNP L protein level (hnRNP L [6]; human osteosarcoma cells (U2OS), proteome analysis): 12 ×
